Common to all, as to type: cell-based
One assay deals with T1, human TLR7 (Homo sapiens, UniProt Q9NYK1).
T1 construct: host or cells: HEK-Blue cells (HEK293-derived reporter line)
T1 sequence (Q9NYK1 27-1049): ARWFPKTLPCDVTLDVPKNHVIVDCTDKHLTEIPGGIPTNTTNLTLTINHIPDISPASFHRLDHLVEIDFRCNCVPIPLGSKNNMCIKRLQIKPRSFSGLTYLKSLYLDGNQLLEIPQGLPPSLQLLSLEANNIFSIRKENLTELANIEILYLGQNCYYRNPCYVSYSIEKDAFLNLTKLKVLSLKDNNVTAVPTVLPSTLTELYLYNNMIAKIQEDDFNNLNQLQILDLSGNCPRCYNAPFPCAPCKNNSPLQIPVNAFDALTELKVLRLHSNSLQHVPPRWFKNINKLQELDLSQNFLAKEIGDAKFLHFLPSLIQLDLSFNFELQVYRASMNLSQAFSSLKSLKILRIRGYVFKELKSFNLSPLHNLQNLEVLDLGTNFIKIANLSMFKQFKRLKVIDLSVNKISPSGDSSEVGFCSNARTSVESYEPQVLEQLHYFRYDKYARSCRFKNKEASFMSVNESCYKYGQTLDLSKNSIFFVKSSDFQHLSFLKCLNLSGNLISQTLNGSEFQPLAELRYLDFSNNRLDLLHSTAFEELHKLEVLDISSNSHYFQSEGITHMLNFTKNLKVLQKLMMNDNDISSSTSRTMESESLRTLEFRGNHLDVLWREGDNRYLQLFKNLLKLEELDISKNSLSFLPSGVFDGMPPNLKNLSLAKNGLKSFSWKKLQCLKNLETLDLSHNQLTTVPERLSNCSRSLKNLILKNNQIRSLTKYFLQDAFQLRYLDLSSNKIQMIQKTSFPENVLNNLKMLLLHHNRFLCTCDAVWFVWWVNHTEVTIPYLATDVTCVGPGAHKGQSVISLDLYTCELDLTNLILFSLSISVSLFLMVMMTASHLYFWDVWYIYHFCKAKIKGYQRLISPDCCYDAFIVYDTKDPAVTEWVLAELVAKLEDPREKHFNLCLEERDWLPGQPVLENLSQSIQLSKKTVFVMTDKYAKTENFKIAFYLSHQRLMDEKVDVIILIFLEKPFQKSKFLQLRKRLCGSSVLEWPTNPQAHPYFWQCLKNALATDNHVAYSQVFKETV
Put plainly: TLR7 inhibition reporter assay (HEK-Blue cells, SEAP reporter, gardiquimod stimulation). To be noted: HEK-Blue cells overexpressing human TLR7, SEAP reporter, gardiquimod 7.5 μM. The method, boiled down:
(§1)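 Percent inhibition of agonist-induced SEAP secretion in HEK-Blue cells after 22 h at 37 °C. Stimuli: 7.5 μM gardiquimod, 15.9 μM R848, 5 nM ODN2006 for TLR7, TLR8 and TLR9, added after 30 min compound exposure over a 0.05 nM–50 μM range.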

The target in the next assay is T2, human TLR8 (Homo sapiens, UniProt Q9NR97).
T2 construct: host or cells: HEK-Blue cells (HEK293-derived reporter line)
T2 sequence (Q9NR97 27-1041): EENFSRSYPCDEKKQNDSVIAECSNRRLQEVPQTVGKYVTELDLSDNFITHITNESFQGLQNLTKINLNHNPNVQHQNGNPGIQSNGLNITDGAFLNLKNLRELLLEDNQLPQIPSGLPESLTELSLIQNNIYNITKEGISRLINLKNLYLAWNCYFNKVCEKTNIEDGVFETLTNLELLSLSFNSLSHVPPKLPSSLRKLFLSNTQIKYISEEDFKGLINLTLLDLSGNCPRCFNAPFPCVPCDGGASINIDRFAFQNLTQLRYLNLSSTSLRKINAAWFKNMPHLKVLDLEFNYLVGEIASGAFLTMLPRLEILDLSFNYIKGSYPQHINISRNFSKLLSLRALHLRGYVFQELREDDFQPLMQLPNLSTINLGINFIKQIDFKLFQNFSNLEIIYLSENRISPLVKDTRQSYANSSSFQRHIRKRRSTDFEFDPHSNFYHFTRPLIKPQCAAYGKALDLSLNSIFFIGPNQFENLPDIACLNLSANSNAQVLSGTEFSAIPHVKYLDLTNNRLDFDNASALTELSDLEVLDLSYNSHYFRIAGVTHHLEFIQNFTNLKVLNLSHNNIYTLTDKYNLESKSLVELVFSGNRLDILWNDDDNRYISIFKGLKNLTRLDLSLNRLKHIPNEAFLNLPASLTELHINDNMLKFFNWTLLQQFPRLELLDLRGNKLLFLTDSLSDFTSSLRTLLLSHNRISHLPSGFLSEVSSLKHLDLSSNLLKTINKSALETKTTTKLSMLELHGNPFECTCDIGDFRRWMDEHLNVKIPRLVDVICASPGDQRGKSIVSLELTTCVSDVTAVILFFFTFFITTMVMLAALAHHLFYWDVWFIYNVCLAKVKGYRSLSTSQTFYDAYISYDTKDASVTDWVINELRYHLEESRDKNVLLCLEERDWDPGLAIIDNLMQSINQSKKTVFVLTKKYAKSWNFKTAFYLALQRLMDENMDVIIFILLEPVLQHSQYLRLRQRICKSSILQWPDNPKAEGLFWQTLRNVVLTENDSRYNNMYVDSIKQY
Put plainly: TLR8 inhibition reporter assay (HEK-Blue cells, SEAP reporter, R848 stimulation). To be noted: HEK-Blue cells overexpressing human TLR8, SEAP reporter, R848 15.9 μM. Summed up: as §1
(In general: Reporter assays use an easily measured gene product as a stand-in for the process of interest.)

The next assay has as its target T3, human TLR9 (Homo sapiens, UniProt Q9NR96).
T3 construct: host or cells: HEK-Blue cells (HEK293-derived reporter line)
T3 sequence (Q9NR96 26-1032): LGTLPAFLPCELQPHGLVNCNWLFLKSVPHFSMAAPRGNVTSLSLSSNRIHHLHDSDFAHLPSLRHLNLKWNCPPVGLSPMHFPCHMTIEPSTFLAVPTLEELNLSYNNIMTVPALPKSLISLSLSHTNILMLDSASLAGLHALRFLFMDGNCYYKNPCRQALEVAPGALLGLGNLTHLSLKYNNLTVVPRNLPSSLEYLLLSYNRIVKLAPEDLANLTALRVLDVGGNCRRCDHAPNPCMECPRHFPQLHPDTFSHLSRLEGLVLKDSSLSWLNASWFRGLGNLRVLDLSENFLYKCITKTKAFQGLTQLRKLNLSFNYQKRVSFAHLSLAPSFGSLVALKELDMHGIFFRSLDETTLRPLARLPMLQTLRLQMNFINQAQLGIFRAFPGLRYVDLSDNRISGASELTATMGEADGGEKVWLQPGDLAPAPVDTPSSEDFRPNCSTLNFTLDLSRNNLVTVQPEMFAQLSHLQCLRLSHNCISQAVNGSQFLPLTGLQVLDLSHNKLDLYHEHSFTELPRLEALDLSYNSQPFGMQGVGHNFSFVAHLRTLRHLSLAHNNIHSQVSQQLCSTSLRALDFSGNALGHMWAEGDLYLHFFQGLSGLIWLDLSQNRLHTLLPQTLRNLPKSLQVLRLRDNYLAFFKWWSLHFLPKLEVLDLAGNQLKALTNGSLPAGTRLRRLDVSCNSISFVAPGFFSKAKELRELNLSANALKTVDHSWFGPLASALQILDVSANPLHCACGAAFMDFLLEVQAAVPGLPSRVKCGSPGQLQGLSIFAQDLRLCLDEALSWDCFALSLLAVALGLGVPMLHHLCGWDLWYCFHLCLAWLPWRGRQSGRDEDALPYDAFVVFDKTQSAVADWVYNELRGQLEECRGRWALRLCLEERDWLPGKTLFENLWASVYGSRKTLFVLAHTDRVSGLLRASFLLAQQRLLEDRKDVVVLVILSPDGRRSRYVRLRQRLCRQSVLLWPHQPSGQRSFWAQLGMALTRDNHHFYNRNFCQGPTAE
Put plainly: TLR9 inhibition reporter assay (HEK-Blue cells, SEAP reporter, ODN2006 stimulation). The conditions noted are these: HEK-Blue cells overexpressing human TLR9, SEAP reporter, ODN2006 5 nM. The method, boiled down:
as §1

On to `CCc1c(-c2ccnc3[nH]ccc23)[nH]c2ccc(C3CCN(Cc4cccn4C)CC3)cc12` [Example 871, 4-(3-ethyl-5-(1-((1-methyl-1H-pyrrol-2-yl)methyl)piperidin-4-yl)-1H-indol-2-yl)-1H-pyrrolo[2,3-b]pyridine], for which the values for the IC50 against human TLR7, on human TLR8 and on human TLR9 were 100 to 1000 nM, below 100 nM and 1000 to 50000 nM, respectively.
Consider `CC(C)c1c(-c2ccnc3[nH]ncc23)[nH]c2ccc(C3CCN(Cc4cnccn4)CC3)cc12` [Example 903, 4-(3-isopropyl-5-(1-(pyrazin-2-ylmethyl)piperidin-4-yl)-1H-indol-2-yl)-1H-pyrazolo[3,4-b]pyridine], for which the IC50 (in general, the concentration that gives 50% inhibition) was below 100 nM against human TLR7, below 100 nM against human TLR8 and 1000 to 50000 nM against human TLR9.
Consider `COc1cc(-c2[nH]c3ccc(C4CCNCC4)cc3c2C(C)C)nn2ncnc12` [Example 38, 6-(3-isopropyl-5-(piperidin-4-yl)-1H-indol-2-yl)-8-methoxy-[1,2,4]triazolo[1,5-b]pyridazine], for which the IC50 was below 100 nM against human TLR7, below 100 nM against human TLR8 and 100 to 1000 nM against human TLR9.
Turning to `Cc1cc2cc(-c3[nH]c4ccc(C5CCN(CC(=O)N(C)C)CC5)cc4c3C(C)C)cc(CC(C)C)n2n1` [Example 393, 2-(4-(2-(7-isobutyl-2-methylpyrazolo[1,5-a]pyridin-5-yl)-3-isopropyl-1H-indol-5-yl)piperidin-1-yl)-N,N-dimethylacetamide], the IC50 against human TLR7 is above 3130 nM; at human TLR8, above 3130 nM; against human TLR9, 1000 to 50000 nM.
As to `CC(C)c1c(-c2ccc(Cl)c3[nH]ncc23)[nH]c2ccc(C3CCNCC3)cc12` [Example 106, 7-chloro-4-(3-isopropyl-5-(piperidin-4-yl)-1H-indol-2-yl)-1H-indazole], the IC50 fell in the range of 100 to 1000 nM against human TLR7, 100 to 1000 nM at human TLR8 and 1000 to 50000 nM against human TLR9.
In the case of `COc1cc(-c2[nH]c3ccc(C4CCN(CC(=O)N(C)C)CC4)cc3c2C(C)C)cc2nc(C)cn12` [Example 334, 2-(4-(3-isopropyl-2-(5-methoxy-2-methylimidazo[1,2-a]pyridin-7-yl)-1H-indol-5-yl)piperidin-1-yl)-N,N-dimethylacetamide], the IC50 at human TLR7, on human TLR8 and against human TLR9 was 100 to 1000 nM each time.
Consider `Cc1cnc2[nH]ccc2c1-c1[nH]c2ccc(C3CCNCC3)cc2c1C(C)C` [Example 247, 4-(3-isopropyl-5-(piperidin-4-yl)-1H-indol-2-yl)-5-methyl-1H-pyrrolo[2,3-b]pyridine], for which the IC50 at human TLR7 was below 100 nM; against human TLR8, below 100 nM; at human TLR9, 1000 to 50000 nM.
With `CCc1c(-c2ccnc3[nH]ccc23)[nH]c2cc(C)c(C3CCN(C4CCN(C(C)C)CC4)CC3)cc12` [Example 840, 4-(3-ethyl-5-(1′-isopropyl-[1,4′-bipiperidin]-4-yl)-6-methyl-1H-indol-2-yl)-1H-pyrrolo[2,3-b]pyridine], the values for the IC50 against human TLR7, against human TLR8 and against human TLR9 were 1000 to 50000 nM, 1000 to 50000 nM and 100 to 1000 nM, respectively.
As for `COc1cc(-c2[nH]c3ccc(C4CCN(CCS(C)(=O)=O)CC4)cc3c2C(C)C)nn2ncnc12` [Example 782, 6-(3-isopropyl-5-(1-(2-(methylsulfonyl)ethyl)piperidin-4-yl)-1H-indol-2-yl)-8-methoxy-[1,2,4]triazolo[1,5-b]pyridazine], the IC50 at human TLR7 is below 100 nM; against human TLR8, below 100 nM; at human TLR9 it was 1000 to 50000 nM.
For `COc1cc(-c2[nH]c3ccc(C4CCN(CC(=O)N(C)C)CC4)cc3c2C(C)C)nn2ncnc12` [Example 283, 2-(4-(3-isopropyl-2-(8-methoxy-[1,2,4]triazolo[1,5-b]pyridazin-6-yl)-1H-indol-5-yl)piperidin-1-yl)-N,N-dimethylacetamide], the IC50 at human TLR7 was below 100 nM; at human TLR8 it was 100 to 1000 nM; on human TLR9 it was 1000 to 50000 nM.
The corresponding values for `Cc1cn2cc(-c3[nH]c4ccc(C5CCNCC5)cc4c3C(C)C)cnc2n1` [Example 159, 6-(3-isopropyl-5-(piperidin-4-yl)-1H-indol-2-yl)-2-methylimidazo[1,2-a]pyrimidine] are below 100 nM, 1000 to 50000 nM and 100 to 1000 nM.
Regarding `Cc1cc(-c2[nH]c3ccc(C4CCN(S(=O)(=O)CCN(C)C)CC4)cc3c2C(C)C)cn2nnnc12` [Example 617, 2-((4-(3-isopropyl-2-(8-methyltetrazolo[1,5-a]pyridin-6-yl)-1H-indol-5-yl)piperidin-1-yl)sulfonyl)-N,N-dimethylethan-1-amine], the IC50 was below 100 nM at human TLR7, below 100 nM at human TLR8 and 1000 to 50000 nM against human TLR9.
As to `CC(C)c1c(-c2ccnc3[nH]ncc23)[nH]c2ccc(C3CCN(Cc4cn5ccccc5n4)CC3)cc12` [Example 862, 4-(5-(1-(imidazo[1,2-a]pyridin-2-ylmethyl)piperidin-4-yl)-3-isopropyl-1H-indol-2-yl)-1H-pyrazolo[3,4-b]pyridine], the IC50 against human TLR7 is below 100 nM; against human TLR8, below 100 nM; on human TLR9, 1000 to 50000 nM.

Source of the values: patent US11739098B2 (BRISTOL-MYERS SQUIBB COMPANY, priority 2017, dated 2023).
